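Cultured in 96-well plates, cells were exposed to test compound for 48 hours across five concentrations. The concentration for 50% growth inhibition is given as GI50.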 Calls of active or inactive are those of the source. No stated cut-off is given here; in the data, active = GI50 up to about 1.1 µM and inactive = higher.
Legend:
Assay in all cases: growth of human tumour cells (NCI), 48 h
NCI-H23 = tested on: NCI-H23
HCT-116 = tested on: HCT-116
SK-MEL-2 = tested on: SK-MEL-2
K562 = tested on: K562
HT-29 = tested on: HT-29
UACC-62 = tested on: UACC-62
RXF 393 = tested on: RXF 393
CCRF-CEM = tested on: CCRF-CEM
HCC 2998 = tested on: HCC 2998
SF-268 = tested on: SF-268
Malme-3M = tested on: Malme-3M
DU-145 = tested on: DU-145
A549 = tested on: A549
OVCAR-4 = tested on: OVCAR-4
KM12 = tested on: KM12
BT-549 = tested on: BT-549
CAKI-1 = tested on: CAKI-1
T47D = tested on: T47D
NCI-H460 = tested on: NCI-H460
EKVX = tested on: EKVX

Measured: GI50

CC(=O)OC1C[C@@H](C)C2(CC(c3ccoc3)OC2=O)C2CCC(O)C3(CO3)C12CO (some centres undefined)
inactive: NCI-H23 > 100 µM | HCT-116 > 100 µM | SK-MEL-2 > 100 µM | K562 > 100 µM | HT-29 > 100 µM | UACC-62 > 100 µM | RXF 393 > 100 µM | CCRF-CEM > 100 µM | HCC 2998 > 100 µM | SF-268 > 100 µM | Malme-3M > 100 µM | DU-145 > 100 µM | A549 > 100 µM | OVCAR-4 > 100 µM | KM12 > 100 µM | BT-549 > 100 µM | CAKI-1 > 100 µM | T47D > 100 µM | NCI-H460 > 100 µM

OCC(Cn1cncn1)(c1ccc(F)cc1F)n1cncn1 (centres undefined)
inactive: NCI-H23 > 100 µM | HCT-116 > 100 µM | SK-MEL-2 > 100 µM | K562 > 100 µM | HT-29 > 100 µM | UACC-62 > 100 µM | RXF 393 > 100 µM | CCRF-CEM > 100 µM | HCC 2998 > 100 µM | SF-268 > 100 µM | Malme-3M > 100 µM | DU-145 > 100 µM | A549 > 100 µM | KM12 > 100 µM | BT-549 > 100 µM | CAKI-1 > 100 µM | T47D > 100 µM | NCI-H460 > 100 µM

CC1(C)OC2COC3([C@@H]4OC(C)(C)O[C@@H]4CO)OC(C)(C)OC3C2O1 (some centres undefined)
inactive: NCI-H23 > 100 µM | HCT-116 > 100 µM | SK-MEL-2 > 100 µM | K562 > 100 µM | UACC-62 > 100 µM | EKVX > 100 µM | RXF 393 > 100 µM | CCRF-CEM > 100 µM | HCC 2998 > 100 µM | DU-145 > 100 µM | A549 > 100 µM | OVCAR-4 > 100 µM | KM12 > 100 µM | BT-549 > 100 µM | CAKI-1 > 100 µM | T47D > 100 µM | NCI-H460 > 100 µM

Cc1cn2c(/C=C3/C(=O)Nc4ccccc43)c(-c3ccccc3)nc2s1
inactive: NCI-H23 48.4 µM | HCT-116 62.4 µM | SK-MEL-2 28.1 µM | K562 > 100 µM | HT-29 > 100 µM | UACC-62 67.6 µM | EKVX 71.3 µM | RXF 393 27 µM | CCRF-CEM > 100 µM | HCC 2998 > 100 µM | SF-268 31 µM | Malme-3M > 100 µM | DU-145 78.3 µM | A549 > 100 µM | KM12 > 100 µM | BT-549 32.9 µM | CAKI-1 > 100 µM | T47D 38.9 µM | NCI-H460 78.2 µM

Cc1nc2c(cc1C(=O)NN)c(=O)n(C)c(=O)n2C
inactive: NCI-H23 > 100 µM | HCT-116 > 100 µM | SK-MEL-2 > 100 µM | K562 > 100 µM | HT-29 > 100 µM | UACC-62 > 100 µM | EKVX > 100 µM | RXF 393 > 100 µM | CCRF-CEM > 100 µM | HCC 2998 > 100 µM | DU-145 > 100 µM | A549 > 100 µM | OVCAR-4 > 100 µM | KM12 > 100 µM | BT-549 > 100 µM | CAKI-1 > 100 µM | T47D > 100 µM | NCI-H460 > 100 µM

CC(C)(C)OC(=O)NC(Cc1ccc(OCc2ccccc2)cn1)C(=O)N1CCCC1 (centres undefined)
inactive: NCI-H23 45.7 µM | HCT-116 79.3 µM | SK-MEL-2 > 100 µM | K562 67.8 µM | HT-29 54 µM | UACC-62 54.3 µM | EKVX 66.8 µM | RXF 393 69.3 µM | CCRF-CEM 44.8 µM | HCC 2998 > 100 µM | SF-268 89.1 µM | Malme-3M 30.3 µM | DU-145 > 100 µM | A549 > 100 µM | KM12 65.5 µM | BT-549 31.1 µM | CAKI-1 > 100 µM | T47D 27.4 µM | NCI-H460 78 µM

CC1=NN(c2ccccc2Cl)C2(C1)SCC(=O)N2c1nc2ccccc2s1 (centres undefined)
inactive: NCI-H23 > 100 µM | HCT-116 > 100 µM | SK-MEL-2 > 100 µM | K562 > 100 µM | HT-29 > 100 µM | UACC-62 > 100 µM | EKVX > 100 µM | RXF 393 > 100 µM | HCC 2998 > 100 µM | SF-268 > 100 µM | Malme-3M > 100 µM | DU-145 > 100 µM | A549 > 100 µM | OVCAR-4 > 100 µM | KM12 > 100 µM | BT-549 > 100 µM | CAKI-1 > 100 µM | T47D > 100 µM | NCI-H460 > 100 µM

OCC1OC(n2cnc3cccnc32)CC1O (centres undefined)
inactive: NCI-H23 > 100 µM | HCT-116 > 100 µM | SK-MEL-2 > 100 µM | K562 > 100 µM | HT-29 > 100 µM | UACC-62 > 100 µM | EKVX > 100 µM | RXF 393 > 100 µM | CCRF-CEM > 100 µM | HCC 2998 > 100 µM | SF-268 > 100 µM | DU-145 > 100 µM | A549 > 100 µM | OVCAR-4 > 100 µM | KM12 > 100 µM | BT-549 > 100 µM | CAKI-1 > 100 µM | T47D > 100 µM | NCI-H460 > 100 µM

c1ccc(C(Oc2noc3ccccc23)c2ccccc2)cc1
inactive: NCI-H23 41.7 µM | HCT-116 25.9 µM | K562 23.8 µM | HT-29 36.7 µM | UACC-62 31.8 µM | EKVX 40.9 µM | RXF 393 14.9 µM | CCRF-CEM 15.9 µM | HCC 2998 21.7 µM | SF-268 65.8 µM | Malme-3M 67.5 µM | DU-145 34 µM | A549 39.5 µM | OVCAR-4 22.2 µM | KM12 29.1 µM | BT-549 32.1 µM | CAKI-1 62.2 µM | T47D 3.64 µM | NCI-H460 29.2 µM

CC(=O)CCCCC(=O)Nc1ccc(CC(NC(=O)OC(C)(C)C)C(=O)NCC(=O)OCc2ccccc2)cc1 (centres undefined)
inactive: NCI-H23 30.8 µM | HCT-116 19.6 µM | K562 17.3 µM | HT-29 19.6 µM | UACC-62 > 10 µM | EKVX 57.3 µM | RXF 393 25.2 µM | HCC 2998 16.4 µM | SF-268 22.4 µM | Malme-3M 19.3 µM | DU-145 32.7 µM | A549 53.7 µM | OVCAR-4 13.7 µM | KM12 29.4 µM | BT-549 14.1 µM | CAKI-1 15.7 µM | T47D 19.9 µM | NCI-H460 20.7 µM

COc1ccc(NC(C)c2ccncc2)cc1 (centres undefined)
inactive: NCI-H23 > 100 µM | HCT-116 > 100 µM | SK-MEL-2 > 100 µM | K562 > 100 µM | HT-29 > 100 µM | EKVX > 100 µM | RXF 393 > 100 µM | CCRF-CEM > 100 µM | HCC 2998 > 100 µM | SF-268 > 100 µM | Malme-3M > 100 µM | DU-145 > 100 µM | A549 > 100 µM | OVCAR-4 > 100 µM | KM12 > 100 µM | BT-549 > 100 µM | CAKI-1 > 100 µM | T47D > 100 µM | NCI-H460 > 100 µM

Source: ChEMBL document CHEMBL1201862, “PubChem BioAssay data set” (2004)
